{
  "source": "BindingDB's records for doi:10.1016/j.bmcl.2010.01.018",
  "about": "(Schering-Plough Research Institute, 2010)",
  "experiment": "Inhibition of Aurora 2 kinase",
  "data": [
    {"molecule": "COc1c(O)cc2c3c(cc4ccc(O)cc4c13)NC2=O", "note": "[aristololactam A IIIa]", "values": [
      {"measurement": "IC50", "result": 2140, "unit": "nM"}
    ]}
  ]
}
